According to patent US6737383B1, “Herbicidal oxadiazolidines” (priority 1999, dated 2004):

How the values were obtained:
bedstraw = test: Test B pre/postemergence bedstraw; format: in vivo, Galium aparine
Procedure, shortened: (§1)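 Herbicidal effect was estimated by eye on a ten-point control scale after plants spent twelve to sixteen days in a greenhouse following soil or foliar treatment. Foliar sprays targeted plants at one to four leaves; all doses were formulated in a non-phytotoxic solvent with surfactant.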

blackgrass = test: Test B pre/postemergence blackgrass; format: in vivo, Alopecurus myosuroides
Procedure, shortened: as §1

surinam grass = test: Test B pre/postemergence surinam grass; format: in vivo, Brachiaria decumbens
Procedure, shortened: as §1

cocklebur = test: Test B pre/postemergence cocklebur; format: in vivo, Xanthium strumarium
Procedure, shortened: as §1

corn = test: Test B pre/postemergence corn; format: in vivo, Zea mays
Procedure, shortened: as §1

morningglory = test: Test B pre/postemergence morningglory; format: in vivo, Ipomoea hederacea
Procedure, shortened: as §1

pigweed = test: Test B pre/postemergence pigweed; format: in vivo, Amaranthus retroflexus
Procedure, shortened: as §1

rape = test: Test B pre/postemergence rape; format: in vivo, Brassica napus
Procedure, shortened: as §1

soybean = test: Test B pre/postemergence soybean; format: in vivo, Glycine max
Procedure, shortened: as §1

sugar beet = test: Test B pre/postemergence sugar beet; format: in vivo, Beta vulgaris
Procedure, shortened: as §1

velvetleaf = test: Test B pre/postemergence velvetleaf; format: in vivo, Abutilon theophrasti
Procedure, shortened: as §1

wild oat = test: Test B pre/postemergence wild oat; format: in vivo, Avena fatua
Procedure, shortened: as §1

purple nutsedge = test: Test B pre/postemergence purple nutsedge; format: in vivo, Cyperus rotundus
Procedure, shortened: as §1

rice = test: Test B flood test rice; format: in vivo, Oryza sativa
Procedure, shortened: (§2)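 Flood test on plants grown to the 2-leaf stage; treated plants kept in greenhouse twelve to sixteen days, then visually rated against controls on a 0 (no effect) to 10 (complete control) scale.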

smallflower flatsedge = test: Test B flood test smallflower flatsedge; format: in vivo, Cyperus difformis
Procedure, shortened: as §2

bamyardgrass = test: Test B flood test barnyardgrass; format: in vivo, Echinochloa crus-galli
Procedure, shortened: as §2

[1] = Preemergence, Rate 31 g/ha, visual rating, scale 0 to 10 (0 no effect, 10 complete control)
[2] = Preemergence, Rate 62 g/ha, scale of 0 to 10 where 0 is no effect and 10 is complete control
[3] = Preemergence, Rate 250 g/ha, scale of 0 to 10 where 0 is no effect and 10 is complete control
[4] = Rate 31 g/ha, Postemergence, scale 0 to 10
[5] = Rate 62 g/ha, Postemergence, scale of 0 to 10 where 0 is no effect and 10 is complete control
[6] = Rate 125 g/ha, Postemergence, scale 0 to 10
[7] = Rate 125 g/ha, Preemergence, scale of 0 to 10 where 0 is no effect and 10 is complete control
[8] = Rate 31 g/ha, Pre-emergence section (flood test species), scale 0 to 10
[9] = Rate 62 g/ha, headed Pre-emergence (flood test species), scale 0 to 10 (0 no effect, 10 complete control)
[10] = Rate 125 g/ha, Pre-emergence, flood test species, scale 0 to 10 where 0 is no effect and 10 is complete control
[11] = Rate 250 g/ha, Pre-emergence, flood-test species, scale 0 to 10, 0 is no effect, 10 is complete control

## CCCCn1c(=O)on(C(=O)N(c2ccc(F)cc2)C(C)C)c1=O [Compound 221]
bedstraw; [1]
  Bedstraw plant response rating: 0
bedstraw; [2]
  Bedstraw plant response rating: 0
bedstraw; [3]
  Bedstraw plant response rating: 4
bedstraw; [4]
  Bedstraw plant response rating: 2
bedstraw; [5]
  Bedstraw plant response rating: 2
bedstraw; [6]
  Bedstraw plant response rating: 7
bedstraw; [7]
  Bedstraw plant response rating: 4
bedstraw; Rate 250 g/ha, Postemergence
  Plant response rating (0 to 10; 0 is no effect, 10 is complete control), Bedstraw: 9
blackgrass; [1]
  Blackgrass plant response rating: 5
blackgrass; [2]
  Blackgrass plant response rating: 5
blackgrass; [3]
  Blackgrass plant response rating: 7
blackgrass; [4]
  Blackgrass plant response rating: 2
blackgrass; [5]
  Blackgrass plant response rating: 2
blackgrass; [6]
  Blackgrass plant response rating: 9
blackgrass; [7]
  Blackgrass plant response rating: 7
blackgrass; Rate 250 g/ha, Postemergence
  Plant response rating (0 to 10; 0 is no effect, 10 is complete control), Blackgrass: 9
Surinam grass; [1]
  B. signalgrass plant response rating: 2
Surinam grass; [2]
  B. signalgrass plant response rating: 5
Surinam grass; Preemergence, Rate 250 g/ha, scale 0 to 10, 0 is no effect, 10 is complete control
  B. signalgrass plant response rating: 6
Surinam grass; [4]
  B. signalgrass plant response rating: 0
Surinam grass; [5]
  B. signalgrass plant response rating: 0
Surinam grass; Rate 125 g/ha, Postemergence, scale 0 (no effect) to 10 (complete control)
  B. signalgrass plant response rating: 3
Surinam grass; [7]
  B. signalgrass plant response rating: 5
Surinam grass; Rate 250 g/ha, Postemergence
  Plant response rating (0 to 10; 0 is no effect, 10 is complete control), B. signalgrass: 8
cocklebur; [2]
  Cocklebur plant response rating: 0
cocklebur; [3]
  Cocklebur plant response rating: 0
cocklebur; [4]
  Cocklebur plant response rating: 0
cocklebur; [5]
  Cocklebur plant response rating: 0
cocklebur; [6]
  Cocklebur plant response rating: 0
cocklebur; [7]
  Cocklebur plant response rating: 0
cocklebur; Rate 250 g/ha, Postemergence
  Plant response rating (0 to 10; 0 is no effect, 10 is complete control), Cocklebur: 0
corn; [1]
  Corn plant response rating: 0
corn; [2]
  Corn plant response rating: 0
corn; [3]
  Corn plant response rating: 0
corn; [4]
  Corn plant response rating: 0
corn; [5]
  Corn plant response rating: 0
corn; [6]
  Corn plant response rating: 0
corn; [7]
  Corn plant response rating: 0
corn; Rate 250 g/ha, Postemergence
  Plant response rating (0 to 10; 0 is no effect, 10 is complete control), Corn: 0
morningglory; [1]
  Morningglory plant response rating: 0
morningglory; [2]
  Morningglory plant response rating: 0
morningglory; [3]
  Morningglory plant response rating: 0
morningglory; [4]
  Morningglory plant response rating: 0
morningglory; [5]
  Morningglory plant response rating: 0
morningglory; [6]
  Morningglory plant response rating: 0
morningglory; [7]
  Morningglory plant response rating: 0
morningglory; Rate 250 g/ha, Postemergence
  Plant response rating (0 to 10; 0 is no effect, 10 is complete control), Morningglory: 0
pigweed; [1]
  Redroot pigweed plant response rating: 7
pigweed; [2]
  Redroot pigweed plant response rating: 9
pigweed; [3]
  Redroot pigweed plant response rating: 10
pigweed; [4]
  Redroot pigweed plant response rating: 2
pigweed; [5]
  Redroot pigweed plant response rating: 6
pigweed; [6]
  Redroot pigweed plant response rating: 8
pigweed; [7]
  Redroot pigweed plant response rating: 10
pigweed; Rate 250 g/ha, Postemergence
  Plant response rating (0 to 10; 0 is no effect, 10 is complete control), Redroot pigweed: 8
rape; [1]
  Rape plant response rating: 0
rape; [2]
  Rape plant response rating: 0
rape; [3]
  Rape plant response rating: 8
rape; [4]
  Rape plant response rating: 0
rape; [5]
  Rape plant response rating: 0
rape; [6]
  Rape plant response rating: 4
rape; [7]
  Rape plant response rating: 6
rape; Rate 250 g/ha, Postemergence
  Plant response rating (0 to 10; 0 is no effect, 10 is complete control), Rape: 4
soybean; [1]
  Soybean plant response rating: 0
soybean; [2]
  Soybean plant response rating: 0
soybean; [3]
  Soybean plant response rating: 0
soybean; [5]
  Soybean plant response rating: 2
soybean; [6]
  Soybean plant response rating: 2
soybean; [7]
  Soybean plant response rating: 0
soybean; Rate 250 g/ha, Postemergence
  Plant response rating (0 to 10; 0 is no effect, 10 is complete control), Soybean: 3
Sugar beet; [1]
  Sugarbeets plant response rating: 0
Sugar beet; [2]
  Sugarbeets plant response rating: 0
Sugar beet; [3]
  Sugarbeets plant response rating: 10
Sugar beet; [5]
  Sugarbeets plant response rating: 0
Sugar beet; [6]
  Sugarbeets plant response rating: 4
Sugar beet; [7]
  Sugarbeets plant response rating: 4
Sugar beet; Rate 250 g/ha, Postemergence
  Plant response rating (0 to 10; 0 is no effect, 10 is complete control), Sugarbeets: 4
velvetleaf; [1]
  Velvetleaf plant response rating: 0
velvetleaf; [2]
  Velvetleaf plant response rating: 0
velvetleaf; [3]
  Velvetleaf plant response rating: 0
velvetleaf; [5]
  Velvetleaf plant response rating: 0
velvetleaf; [6]
  Velvetleaf plant response rating: 0
velvetleaf; [7]
  Velvetleaf plant response rating: 0
velvetleaf; Rate 250 g/ha, Postemergence
  Plant response rating (0 to 10; 0 is no effect, 10 is complete control), Velvetleaf: 0
Wild oat; [1]
  Wild oats plant response rating: 2
Wild oat; [2]
  Wild oats plant response rating: 2
Wild oat; [3]
  Wild oats plant response rating: 4
Wild oat; [5]
  Wild oats plant response rating: 0
Wild oat; [6]
  Wild oats plant response rating: 0
Wild oat; [7]
  Wild oats plant response rating: 2
Wild oat; Rate 250 g/ha, Postemergence
  Plant response rating (0 to 10; 0 is no effect, 10 is complete control), Wild oats: 2
Purple nutsedge; [1]
  Nutsedge plant response rating: 0
Purple nutsedge; [2]
  Nutsedge plant response rating: 0
Purple nutsedge; [3]
  Nutsedge plant response rating: 0
Purple nutsedge; [4]
  Nutsedge plant response rating: 0
Purple nutsedge; [5]
  Nutsedge plant response rating: 0
Purple nutsedge; [6]
  Nutsedge plant response rating: 0
Purple nutsedge; [7]
  Nutsedge plant response rating: 0
Purple nutsedge; Rate 250 g/ha, Postemergence
  Plant response rating (0 to 10; 0 is no effect, 10 is complete control), Nutsedge: 0
rice; [8]
  Rice plant response rating: 0
rice; [9]
  Rice plant response rating: 0
rice; [10]
  Rice plant response rating: 0
rice; [11]
  Rice plant response rating: 0
Smallflower flatsedge; [8]
  S. Flatsedge plant response rating: 0
Smallflower flatsedge; [9]
  S. Flatsedge plant response rating: 0
Smallflower flatsedge; [10]
  S. Flatsedge plant response rating: 0
Smallflower flatsedge; [11]
  S. Flatsedge plant response rating: 0
bamyardgrass; [8]
  Barnyardgrass plant response rating: 0
bamyardgrass; [9]
  Barnyardgrass plant response rating: 0
bamyardgrass; [10]
  Barnyardgrass plant response rating: 0
bamyardgrass; [11]
  Barnyardgrass plant response rating: 0
